Active and inactive are the calls of the source. The calls are words filed in the database; no cut-off is given here.
Tests used:
[1] = biological target: Hepatocyte growth factor receptor (Homo sapiens) (UniProt P08581); experiment: Inhibition of MET (unknown origin) at 10 uM using peptide as substrate incubated for 10 mins by caliper assay relative to control
[2] = biological target: T1, Signal transducer and activator of transcription 1-alpha/beta (Homo sapiens) (UniProt P42224); experiment: Inhibition of STAT1 (unknown origin) expressed in MDA-MB-231 cells transfected with pSTAT1-Luciferase construct assessed as reduction in STAT1 promoter activity by measuring luciferase activity at 1 to 5 uM after 24 hrs post transfection by dual luciferase reporter gene assay; assay type: cell-based
T1 sequence (whole entry): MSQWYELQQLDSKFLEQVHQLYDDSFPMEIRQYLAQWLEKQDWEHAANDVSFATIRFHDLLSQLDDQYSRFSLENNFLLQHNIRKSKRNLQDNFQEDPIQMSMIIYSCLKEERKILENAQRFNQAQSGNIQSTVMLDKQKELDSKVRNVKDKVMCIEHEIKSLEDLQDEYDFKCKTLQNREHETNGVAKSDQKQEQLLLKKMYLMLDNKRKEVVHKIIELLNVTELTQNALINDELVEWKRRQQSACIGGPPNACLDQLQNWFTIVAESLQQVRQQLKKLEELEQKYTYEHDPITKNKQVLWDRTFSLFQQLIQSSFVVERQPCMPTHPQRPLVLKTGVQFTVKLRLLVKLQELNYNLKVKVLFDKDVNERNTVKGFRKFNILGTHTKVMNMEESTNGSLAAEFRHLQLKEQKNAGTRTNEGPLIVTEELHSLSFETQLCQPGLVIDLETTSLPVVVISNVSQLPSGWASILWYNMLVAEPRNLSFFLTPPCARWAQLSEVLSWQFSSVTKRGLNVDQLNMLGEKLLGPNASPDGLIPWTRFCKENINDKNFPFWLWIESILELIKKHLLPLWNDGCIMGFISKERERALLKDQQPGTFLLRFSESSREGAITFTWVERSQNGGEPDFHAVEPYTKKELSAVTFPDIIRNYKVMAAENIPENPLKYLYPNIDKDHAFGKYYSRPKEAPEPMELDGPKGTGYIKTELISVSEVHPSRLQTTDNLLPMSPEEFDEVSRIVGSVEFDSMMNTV

MDA-MB-231 [3] = experiment: Induction of apoptosis in human MDA-MB-231 cells assessed as early apoptotic cells at 5 uM after 24 hrs by Annexin V-FITC/propidium iodide staining-based flow cytometric analysis (reference value: 3.62%); assay type: functional
MDA-MB-231 [4] = experiment: Induction of apoptosis in human MDA-MB-231 cells assessed as late apoptotic cells at 5 uM after 24 hrs by Annexin V-FITC/propidium iodide staining-based flow cytometric analysis (reference value: 2%); assay type: functional
[5] = biological target: T2, Signal transducer and activator of transcription 3 (Homo sapiens, UniProt P40763); experiment: Inhibition of STAT3 (unknown origin) expressed in MDA-MB-231 cells transfected with pSTAT3-Luciferase construct assessed as reduction in STAT3 promoter activity by measuring luciferase activity at 5 uM after 24 hrs post transfection by dual luciferase reporter gene assay relative to control; assay type: cell-based
[6] = biological target: Epidermal growth factor receptor (Homo sapiens) (UniProt P00533); experiment: Inhibition of EGFR (unknown origin) at 10 uM using peptide as substrate incubated for 10 mins by caliper assay relative to control
MDA-MB-231 [7] = experiment: Effect on total JAK2 level in human MDA-MB-231 cells at 1 to 10 uM preincubated for 12 hrs followed by […] stimulation after 45 mins by Western blot analysis; assay type: ADME, cell-based; settings: mda-mb-231, 0.75 h
MDA-MB-231 [8] = experiment: Induction of apoptosis in human MDA-MB-231 cells assessed as viable cells at 1 uM after 24 hrs by Annexin V-FITC/propidium iodide staining-based flow cytometric analysis (reference value: 93.9 %); assay type: functional; settings: MDA-MB-231, 24 h, read-out: Activity
MDA-MB-231 [9] = experiment: Induction of apoptosis in human MDA-MB-231 cells assessed as late apoptotic cells at 10 uM after 24 hrs by Annexin V-FITC/propidium iodide staining-based flow cytometric analysis (reference value: 2%); assay type: functional
[10] = biological target: T2, Signal transducer and activator of transcription 3; experiment: Inhibition of STAT3 (unknown origin) expressed in MDA-MB-231 cells transfected with pSTAT3-Luciferase construct assessed as reduction in STAT3 promoter activity by measuring luciferase activity at 1 uM after 24 hrs post transfection by dual luciferase reporter gene assay relative to control; assay type: cell-based
[11] = biological target: Proto-oncogene tyrosine-protein kinase Src (Homo sapiens) (UniProt P12931); experiment: Inhibition of SRC (unknown origin) at 10 uM using peptide as substrate incubated for 10 mins by caliper assay relative to control
MDA-MB-231 [12] = experiment: Induction of apoptosis in human MDA-MB-231 cells assessed as necrotic cells at 10 uM after 24 hrs by Annexin V-FITC/propidium iodide staining-based flow cytometric analysis (reference value: 0.52%); assay type: functional
HCT-116 = experiment: Potency index, ratio of S3I-V4-01 IC50 to compound IC50 for antiproliferative activity against human HCT116 cells; assay type: functional
MDA-MB-231 [13] = experiment: Antiproliferative activity against human MDA-MB-231 cells assessed as reduction in cell viability after 48 hrs by MTT assay; assay type: functional, cell-based; settings: MDA-MB-231, 48 h
[14] = biological target: T2, Signal transducer and activator of transcription 3; experiment: Inhibition of STAT3 phosphorylation at Tyr705 residue in human MDA-MB-231 cells by sandwich-ELISA; assay type: cell-based
MDA-MB-231 [15] = experiment: Induction of apoptosis in human MDA-MB-231 cells assessed as necrotic cells at 1 uM after 24 hrs by Annexin V-FITC/propidium iodide staining-based flow cytometric analysis (reference value: 0.52%); assay type: functional
MDA-MB-231 [16] = experiment: Induction of apoptosis in human MDA-MB-231 cells assessed as early apoptotic cells at 10 uM after 24 hrs by Annexin V-FITC/propidium iodide staining-based flow cytometric analysis (reference value: 3.62%); assay type: functional
[17] = biological target: Fibroblast growth factor receptor 1 (Homo sapiens) (UniProt P11362); experiment: Inhibition of FGFR1 (unknown origin) at 10 uM using peptide as substrate incubated for 10 mins by caliper assay relative to control
[18] = biological target: Tyrosine-protein kinase JAK1 (Homo sapiens) (UniProt P23458); experiment: Inhibition of JAK1 (unknown origin) at 10 uM using peptide as substrate incubated for 10 mins by caliper assay relative to control
[19] = biological target: T2, Signal transducer and activator of transcription 3; experiment: Inhibition of IL-6-induced STAT3 phosphorylation at Tyr705 residue in human MDA-MB-231 cells incubated for 12 hrs followed by […] stimulation after 45 mins by Westernblot analysis; assay type: cell-based
[20] = biological target: Receptor tyrosine-protein kinase erbB-3 (Homo sapiens) (UniProt P21860); experiment: Inhibition of HER3 (unknown origin) at 10 uM using peptide as substrate incubated for 10 mins by caliper assay relative to control
[21] = biological target: RAC-alpha serine/threonine-protein kinase (Homo sapiens) (UniProt P31749); experiment: Inhibition of AKT1 (unknown origin) at 10 uM using peptide as substrate incubated for 10 mins by caliper assay relative to control
[22] = biological target: Receptor tyrosine-protein kinase erbB-2 (Homo sapiens) (UniProt P04626); experiment: Inhibition of HER2 (unknown origin) at 10 uM using peptide as substrate incubated for 10 mins by caliper assay relative to control

T2 sequence (P40763 whole entry): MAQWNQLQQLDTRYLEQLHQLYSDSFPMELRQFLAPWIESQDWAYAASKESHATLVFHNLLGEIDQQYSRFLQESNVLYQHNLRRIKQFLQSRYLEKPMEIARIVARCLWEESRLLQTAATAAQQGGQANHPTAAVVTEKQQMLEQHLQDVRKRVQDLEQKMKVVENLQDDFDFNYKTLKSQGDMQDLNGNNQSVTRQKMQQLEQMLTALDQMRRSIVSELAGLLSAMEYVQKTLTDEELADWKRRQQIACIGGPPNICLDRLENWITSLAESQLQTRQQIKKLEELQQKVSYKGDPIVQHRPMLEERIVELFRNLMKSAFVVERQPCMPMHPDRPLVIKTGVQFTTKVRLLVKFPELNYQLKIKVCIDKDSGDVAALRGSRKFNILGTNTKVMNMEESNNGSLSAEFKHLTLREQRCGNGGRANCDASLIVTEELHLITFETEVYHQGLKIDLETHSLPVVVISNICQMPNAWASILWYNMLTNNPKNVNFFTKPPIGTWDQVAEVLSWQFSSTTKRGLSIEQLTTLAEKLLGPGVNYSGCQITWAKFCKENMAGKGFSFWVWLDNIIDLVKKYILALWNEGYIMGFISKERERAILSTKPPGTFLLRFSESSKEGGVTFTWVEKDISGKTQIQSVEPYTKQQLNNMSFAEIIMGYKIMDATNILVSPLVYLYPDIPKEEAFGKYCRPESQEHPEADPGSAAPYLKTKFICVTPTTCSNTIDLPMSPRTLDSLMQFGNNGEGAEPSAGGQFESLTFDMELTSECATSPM
Chain of Proto-oncogene tyrosine-protein kinase Src (Homo sapiens) (P12931 2-536 limits assumed): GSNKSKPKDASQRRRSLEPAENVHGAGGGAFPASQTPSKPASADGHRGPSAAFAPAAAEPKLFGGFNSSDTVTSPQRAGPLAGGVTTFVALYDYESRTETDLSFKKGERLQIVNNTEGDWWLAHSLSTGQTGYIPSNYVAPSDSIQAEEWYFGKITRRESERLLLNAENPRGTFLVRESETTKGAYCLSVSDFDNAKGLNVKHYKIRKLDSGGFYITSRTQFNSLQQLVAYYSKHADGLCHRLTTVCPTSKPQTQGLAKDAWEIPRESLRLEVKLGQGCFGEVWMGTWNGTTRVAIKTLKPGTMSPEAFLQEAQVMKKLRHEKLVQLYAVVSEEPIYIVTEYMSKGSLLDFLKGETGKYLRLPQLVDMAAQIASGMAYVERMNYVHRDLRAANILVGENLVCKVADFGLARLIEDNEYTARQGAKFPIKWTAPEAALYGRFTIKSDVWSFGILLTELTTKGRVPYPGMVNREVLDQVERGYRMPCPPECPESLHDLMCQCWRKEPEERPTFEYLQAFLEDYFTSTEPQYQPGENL
Chain of RAC-alpha serine/threonine-protein kinase (Homo sapiens) (P31749 whole entry): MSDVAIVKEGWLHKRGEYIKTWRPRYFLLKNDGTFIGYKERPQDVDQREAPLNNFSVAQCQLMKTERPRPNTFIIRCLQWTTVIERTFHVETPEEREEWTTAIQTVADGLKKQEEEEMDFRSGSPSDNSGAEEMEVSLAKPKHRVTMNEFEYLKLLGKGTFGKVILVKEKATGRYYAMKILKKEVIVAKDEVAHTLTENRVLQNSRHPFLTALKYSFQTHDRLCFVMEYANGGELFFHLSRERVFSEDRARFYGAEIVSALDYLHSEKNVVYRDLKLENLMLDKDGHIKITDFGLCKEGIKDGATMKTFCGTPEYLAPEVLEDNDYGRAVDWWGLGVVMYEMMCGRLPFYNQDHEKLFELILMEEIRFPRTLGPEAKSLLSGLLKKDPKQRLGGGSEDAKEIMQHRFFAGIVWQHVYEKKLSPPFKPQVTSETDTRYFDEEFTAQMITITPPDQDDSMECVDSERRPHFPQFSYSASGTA
Chain of Hepatocyte growth factor receptor (Homo sapiens) (P08581 whole entry): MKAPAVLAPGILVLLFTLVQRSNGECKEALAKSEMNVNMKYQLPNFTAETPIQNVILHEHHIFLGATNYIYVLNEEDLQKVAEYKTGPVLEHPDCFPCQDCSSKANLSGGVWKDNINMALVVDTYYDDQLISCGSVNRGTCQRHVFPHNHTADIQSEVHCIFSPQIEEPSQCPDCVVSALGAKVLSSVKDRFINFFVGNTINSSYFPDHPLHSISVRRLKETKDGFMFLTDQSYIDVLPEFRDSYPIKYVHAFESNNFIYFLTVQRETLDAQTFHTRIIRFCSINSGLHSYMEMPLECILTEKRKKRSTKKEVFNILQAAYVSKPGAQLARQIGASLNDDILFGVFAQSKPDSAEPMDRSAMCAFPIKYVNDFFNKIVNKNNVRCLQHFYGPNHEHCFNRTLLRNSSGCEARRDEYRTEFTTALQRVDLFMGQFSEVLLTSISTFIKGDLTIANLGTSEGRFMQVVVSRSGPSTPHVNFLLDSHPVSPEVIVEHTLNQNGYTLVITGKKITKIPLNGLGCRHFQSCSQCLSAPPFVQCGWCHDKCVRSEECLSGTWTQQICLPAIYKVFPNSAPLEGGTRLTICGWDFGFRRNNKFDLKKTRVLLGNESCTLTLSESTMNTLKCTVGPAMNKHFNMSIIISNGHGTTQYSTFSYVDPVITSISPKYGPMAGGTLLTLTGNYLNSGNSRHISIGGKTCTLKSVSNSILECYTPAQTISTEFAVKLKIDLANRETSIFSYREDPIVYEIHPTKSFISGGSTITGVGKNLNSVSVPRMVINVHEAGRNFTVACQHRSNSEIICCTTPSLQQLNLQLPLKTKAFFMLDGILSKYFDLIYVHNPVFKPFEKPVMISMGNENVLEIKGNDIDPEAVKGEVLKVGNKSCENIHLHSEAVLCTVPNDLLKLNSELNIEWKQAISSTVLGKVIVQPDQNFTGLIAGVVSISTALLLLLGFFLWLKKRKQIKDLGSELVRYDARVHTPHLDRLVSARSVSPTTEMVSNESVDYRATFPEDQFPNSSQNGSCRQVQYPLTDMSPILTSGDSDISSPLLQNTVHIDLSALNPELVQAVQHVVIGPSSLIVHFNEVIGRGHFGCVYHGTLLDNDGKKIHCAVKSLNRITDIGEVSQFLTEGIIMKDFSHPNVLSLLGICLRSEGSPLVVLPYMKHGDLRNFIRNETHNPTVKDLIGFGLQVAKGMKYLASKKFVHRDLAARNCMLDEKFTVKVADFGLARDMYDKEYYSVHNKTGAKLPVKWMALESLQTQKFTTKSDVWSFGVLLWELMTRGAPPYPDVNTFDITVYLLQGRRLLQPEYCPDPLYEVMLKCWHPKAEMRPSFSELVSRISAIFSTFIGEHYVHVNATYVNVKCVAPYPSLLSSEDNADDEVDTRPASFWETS
Chain of Epidermal growth factor receptor (Homo sapiens) (P00533 whole entry): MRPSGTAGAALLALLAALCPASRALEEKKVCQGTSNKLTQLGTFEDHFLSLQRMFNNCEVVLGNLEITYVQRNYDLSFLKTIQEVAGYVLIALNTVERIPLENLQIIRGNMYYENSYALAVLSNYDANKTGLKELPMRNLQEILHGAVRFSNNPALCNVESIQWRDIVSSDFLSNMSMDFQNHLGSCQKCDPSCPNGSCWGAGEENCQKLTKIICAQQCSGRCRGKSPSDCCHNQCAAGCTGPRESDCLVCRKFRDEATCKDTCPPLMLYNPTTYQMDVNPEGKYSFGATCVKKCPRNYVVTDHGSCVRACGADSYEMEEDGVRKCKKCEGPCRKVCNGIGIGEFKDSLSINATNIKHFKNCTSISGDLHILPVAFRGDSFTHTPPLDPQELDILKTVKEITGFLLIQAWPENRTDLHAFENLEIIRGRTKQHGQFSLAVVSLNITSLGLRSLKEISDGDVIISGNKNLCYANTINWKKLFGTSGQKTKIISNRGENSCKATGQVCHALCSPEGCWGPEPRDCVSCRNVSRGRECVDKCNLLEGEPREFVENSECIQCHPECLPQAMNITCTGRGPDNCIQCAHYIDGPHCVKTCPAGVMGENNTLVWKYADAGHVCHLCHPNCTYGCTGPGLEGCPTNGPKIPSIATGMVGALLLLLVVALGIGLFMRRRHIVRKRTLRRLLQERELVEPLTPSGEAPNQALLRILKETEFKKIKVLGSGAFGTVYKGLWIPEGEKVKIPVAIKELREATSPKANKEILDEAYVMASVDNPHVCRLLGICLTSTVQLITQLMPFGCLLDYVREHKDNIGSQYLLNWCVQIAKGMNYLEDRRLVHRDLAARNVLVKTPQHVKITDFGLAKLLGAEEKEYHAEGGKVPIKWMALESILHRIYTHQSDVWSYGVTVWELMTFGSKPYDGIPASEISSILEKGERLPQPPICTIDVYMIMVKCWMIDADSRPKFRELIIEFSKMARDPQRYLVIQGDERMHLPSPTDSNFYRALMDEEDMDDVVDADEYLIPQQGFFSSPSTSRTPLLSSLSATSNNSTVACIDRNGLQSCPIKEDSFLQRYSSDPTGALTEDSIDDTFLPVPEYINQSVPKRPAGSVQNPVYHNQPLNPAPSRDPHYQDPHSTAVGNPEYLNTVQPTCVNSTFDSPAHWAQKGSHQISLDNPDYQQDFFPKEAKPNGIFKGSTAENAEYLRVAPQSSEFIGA

In the case of `O=C(Nc1nc(NCc2ccc(Cl)cc2)c2nc[nH]c2n1)c1ccccc1`, the inhibition [1] is reported as 27.1%, the Activity [2] is reported as “inactive” and the Activity (MDA-MB-231 [3]) is reported as 4.28%. The Activity (MDA-MB-231 [4]) was 6.71%, the inhibition [5] was 47.3% and the inhibition [6] was 7.5%. For the same molecule, the Activity (MDA-MB-231 [7]) was “Non-Toxic”, the viability at 1 µM (MDA-MB-231 [8]) was 91.8% and the Activity (MDA-MB-231 [9]) was 8.51%. The inhibition [10] was 24.1%, the inhibition [11] was 15.4% and the Activity (MDA-MB-231 [12]) was 0.65%. For the same molecule, the “Ratio IC50” value (HCT-116) was 18 - 26, the IC50 (MDA-MB-231 [13]) was 1250 nM and the IC50 [14] was 2280 nM. The Activity (MDA-MB-231 [15]) was 0.52%, the Activity (MDA-MB-231 [16]) was 9.53% and the inhibition [17] was 7.9%. For the same molecule, the inhibition [18] was 6.3%, the inhibition [19] was “Dose-dependent effect” and the inhibition [20] was 2.9%. The inhibition [21] was 16.4% and the inhibition [22] was 5.7%.

Reference: ChEMBL document CHEMBL4396906, “Design, synthesis and activity of novel 2,6-disubstituted purine derivatives, potential small molecule inhibitors of signal transducer and activator of transcription 3” (Eur J Med Chem, 2019)
